Results taken from US12005051B2, “Topical roflumilast formulation having improved delivery and plasma half life” (ARCUTIS BIOTHERAPEUTICS, inc., priority 2017, dated 2024).
Read-outs that look alike come from different tables or passages of the source. One block for each compound: values may come before it.

Legend:
[1] = design: species or system human; settings: in vivo
Procedure: A parallel group, double blind, vehicle-controlled study was performed in which ARQ-151 cream 0.3% (Formulation 3 in Example 5) or ARQ-151 cream 0.15% (Formulation 7) or vehicle cream is applied QD for 84 days to subjects with chronic plaque psoriasis involving between 2 and 20% body surface area (BSA).
A total of approximately 300 subjects were enrolled at approximately 30 study sites in the United States and Canada. Subjects were adult (≥18 y/o) males or females with chronic plaque psoriasis. […] Subjects with an IGA of ‘Mild’ (2) were limited to 20% of total enrollment. Subjects with an IGA of ‘Severe’ (4) were limited to 15% of total enrollment. Subjects had at least 2% and no more than 20% Body Surface Area (BSA) of chronic plaque psoriasis. All psoriasis lesions on a subject were treated including the face, trunk, genitals/skin folds, or limbs (excluding the scalp). The palms and soles were treated but were not counted towards any measurements of efficacy (IGA, BSA, mPASI). For subjects with intertriginous area involvement, and with severity of the intertriginous area lesions at least ‘mild’ (IGA≥2) at Baseline, ‘I-IGA’ score was recorded at weeks 4, 6, 8 and 12. The same IGA used for the primary endpoint (whole body) was also used for ‘intertriginous area lesion IGA score’ (I-IGA), but only intertriginous areas were evaluated for I-IGA, not the rest of the body.
(§1) Blood samples were taken from all subjects at all sites as pre-dose on Day 1 (baseline) and Weeks 4 (Day 29) and 12 (Day 85). The analysis of the PK data collected was performed with a CFR 21 Part 11 compliant software package (Phoenix WinNonlin version 8.1) which is in full compliance with ICH-GCP. Samples from all subjects within the PK population were evaluated. Any subject or data excluded from the PK analysis were identified, along with the reason for exclusion in this PK report. BSA was averaged based on Baseline, Week 2, Week 4, Week 6 and Week 8 measured BSA values, the screening values, Week 12 and Week 16 values, and any other unscheduled visit values were excluded. Four subjects participated in an optional phase at the completion of the study to assess the elimination of roflumilast and the N-oxide at the end of treatment, however only three had quantifiable concentrations of roflumilast and the N-oxide. From the three subjects, the terminal rate constant (lambda z, λz) was determined by the slope of the regression line of the natural log transformed concentrations vs. time data. The terminal half-life (t½) was calculated as: In(2)/λz.
(§2) Concentration values that are reported BLQ (<0.100 for roflumilast and N-oxide) were reported as below limit of quantification (BLQ) in the concentration data listings and considered non-numerical. Nonnumerical values were ignored in the concentration by nominal time summary statistics. Summary statistics (i.e. N, arithmetic mean, SD, CV %, minimum, median, maximum, geometric mean, geometric SD, 95% confidence intervals for both the arithmetic mean and geometric mean) were calculated for plasma concentrations for each analyte, nominal day and dose strength. All concentration and descriptive statistic values were reported to three significant figures.

[2] = optional elimination phase assessment at end of treatment with ARQ-151 cream in psoriasis; type: in vivo, human; settings: for half-life: human, plasma
Procedure: as §1, §2

[3] = cited from earlier work; for mean plasma half-life: multiple 0.375 mg doses, immediate release oral roflumilast
[4] = dissolution of roflumilast in solvents and solvent:water blends at 25° C.; type: physicochemical
Procedure: (§3) 0.0092 grams of roflumilast (Batch A14367P from Interquim S.A.) was weighed into a liquid scintillation vial. An equimolar blend of hexylene glycol (lot 1AC0818, Spectrum) and distilled water was added dropwise with mixing to the vial containing roflumilast to produce a suspension of roflumilast in excess of the solubility limit. An equimolar blend is 86.7% hexylene glycol and 13.3% water on a weight/weight percent basis. After mixing each addition of hexylene glycol:water blend, the tightly capped vial was returned to a water bath set at 25° C. It required 0.7962 grams of equimolar Hexylene Glycol:Water blend to completely dissolve the 0.0092 grams of roflumilast and give a 1.14% roflumilast in equimolar Hexylene Glycol:Water (wt/wt %) solution. 0.0064 grams of roflumilast was added to this sample (labeled 12-3) to form a finely dispersed suspension at 25° C. and the vial was then stored undisturbed at about 15-18° C., protected from the light for six weeks. A sample of the roflumilast crystals was removed from the vial, placed on a microscope slide (with coverslip) and then examined using polarized light microscopy using a 10× objective (FIG. 2, microscope sample 20-3).
0.0111 grams of roflumilast (Batch A14367P from Interquim S.A.) was weighed into a liquid scintillation vial. An equimolar blend of […] (Transcutol P, lot 146063, Gattefosse) and distilled water was added dropwise with mixing to the vial containing roflumilast to produce a suspension of roflumilast in excess of the solubility limit. An equimolar blend is 88.3% DEGEE and 11.7% water on a weight/weight percent basis. After mixing each addition of DEGEE:water blend, the tightly capped vial was returned to a water bath set at 25° C. It required 0.2477 grams of equimolar DEGEE:Water blend to completely dissolve the 0.0111 grams of roflumilast and give a 4.29% roflumilast in equimolar DEGEE:Water (wt/wt %) solution. This sample (labeled 13-1) was a solution of roflumilast at 25° C. and the vial was then stored undisturbed at about 15-18° C., protected from the light for six weeks. Roflumilast crystals precipitated due to the cooler storage temperature. A sample of the roflumilast crystals was removed from the vial, placed on a microscope slide (with coverslip) and then examined using polarized light microscopy using a 10× objective (FIG. 3, microscope sample 20-2).
as §3, with “4×” for “10×”, “4,” for “2,”
0.0180 grams of roflumilast (Batch A14367P from Interquim S.A.) was weighed into a liquid scintillation vial. Polyethylene glycol 400 (lot 1 DE0880, Spectrum) was added dropwise with mixing to the vial containing roflumilast to produce a suspension of roflumilast in excess of the solubility limit. After mixing each addition of polyethylene glycol 400, the tightly capped vial was returned to a water bath set at 25° C. […]

[5] = roflumilast crystal size by polarized light microscopy, dry and after six weeks storage in solvent blends; type: physicochemical; settings: for crystal width: six weeks at room temperature
clinical = settings: human, in vivo, po
Procedure: In addition to the consistent delivery of a suspended active ingredient from a topical product, successful treatment also depends on the elimination kinetics of the active ingredient. After a drug is absorbed into a patient's body, elimination begins thereby reducing the concentration over time. The half-life determines the length of time that the drug will be effective. […] Since the maximum plasma concentration (11.4 ng roflumilast per mL plasma) occurs for roflumilast about 1 hour after oral dosing, mean plasma concentration at the time of the first missed dose (1 day after the most recent dose) will be approximately 5.7 ng/mL (half the 11.4 ng/mL maximum plasma concentration). […] For oral roflumilast, use of a sustained release oral drug delivery system instead of the immediate release tablet studied by Huang, would be an example of extrinsic PK property modification to increase the adherence imperfection forgiveness of the product that would benefit the patient that missed one or more doses of roflumilast.

[6] = cited from earlier work

mean N-oxide pre-dose plasma concentration relative to parent pre-dose plasma concentration [1]: 5.3-6.2 fold
mean pre-dose plasma concentration, Day 29 versus Day 85 [1]: ≤ 2 fold
Half-life values ([2]; three subjects, end of treatment, topical ARQ-151): around 3.6 days
SMILES: O=C(Nc1c(Cl)c[n+]([O-])cc1Cl)c1ccc(OC(F)F)c(OCC2CC2)c1 [roflumilast N-oxide]

storage time until fine roflumilast crystals were observed ([4]; 0.28% roflumilast, 88.97% propylene glycol, 10.75% water, initially clear solution, 25° C.): 105 min
roflumilast concentration in solution ([4]; dimethyl sulfoxide, 25° C.): 28.5%
roflumilast concentration at complete dissolution ([4]; equimolar DEGEE:Water, 25° C.): 4.29 wt/wt %
roflumilast concentration at complete dissolution ([4]; equimolar Hexylene Glycol:Water, 25° C.): 1.14 wt/wt %
roflumilast concentration completely dissolved ([4]; equimolar N-Methyl-2 pyrrolidone:water, 25° C.): 22.85%
roflumilast concentration at complete dissolution ([4]; polyethylene glycol 400, 25° C.): 3.18%
crystal width ([5]; Sample 21-1, HG:NMP:Water (water mole fraction=1.2)): 0.02 mm
crystal width ([5]; Sample 21-2, equimolar ethanol:water): 0.02 mm
crystal width ([5]; Sample 21-3, equimolar PEG 400:water): 0.02 mm
crystal width ([5]; Sample 21-5, equimolar propylene glycol:water): 0.02 mm
concentration at 1 day (clinical): ~5.7 ng/mL
concentration at 2 days (clinical): ~2.8 ng/mL
concentration at 72 hours (clinical): ~1.4 ng/mL
mean pre-dose plasma concentration, Day 29 versus Day 85 ([1]; both, human): ≤ 2 fold
increase of roflumilast plasma pre-dose concentration between the 2-fold increase in dose strength ([1]; both, human, 29 day): about 1.6 fold
increase of roflumilast plasma pre-dose concentration between the 2-fold increase in dose strength ([1]; both, human, 85 day): about 1.7 fold
half-life ([2]; topical or ocular, three subjects, end of treatment, topical ARQ-151, read-out: Half-life values (converted)): ~86.4 h
half-life ([2]; after topical administration of a formulation with self-emulsifying wax blend of dicetyl phosphate and ceteth-10 phosphate and a solvent, read-out: plasma half-life of roflumilast): 81.6 to 88.8 h
SMILES: O=C(Nc1c(Cl)cncc1Cl)c1ccc(OC(F)F)c(OCC2CC2)c1 [roflumilast, N-(3,5-dichloropyrid-4-yl)-3-cyclopropylmethoxy-4-difluoromethoxybenzamid-e]
mean plasma half-life [3]: about 1 day
mean plasma half-life ([3]; mean of 12 subjects): 25.6 h
maximum plasma concentration ([3]; multiple 0.375 mg oral doses): 11.4 ng/mL
time of maximum plasma concentration after oral dosing ([3]; multiple 0.375 mg oral doses): about 1 hour
roflumilast crystalline growth, comparison ([5]; equimolar N-methyl pyrrolidone:water compared to 12:4:3 (wt/wt/wt) hexylene glycol:N-methyl pyrrolidone:water): Dramatically greater roflumilast crystalline growth
plasma half-life ([6]; after intravenous administration in humans): about 15 hours
plasma half-life ([6]; after oral administration): 17 to 30 h
